{
  "source": "patent US20240316196A1",
  "about": "“METHODS AND COMPOSITIONS FOR DIFFERENTIATION OF PLURIPOTENT STEM CELLS AND DERIVED NATURAL KILLER CELLS” (NUWACELL BIOTECHNOLOGIES CO., LTD., priority 2022, published 2024)",
  "key": {"[1]": {"system": "PBNK cells", "experiment": "Expansion of PBNK cells from PBMCs (NK cell expansion fold; CD56+CD3− % by flow cytometry)", "format": "cell-based", "conditions": "NAM 0-5 mM in basal medium", "experimental": "The effect of the concentration of nicotinamide (NAM) in an exemplary basal medium on NK cell expansion was evaluated. The above basal medium comprised the following components: IMDM (Sigma): RPMI1640 (Gibco) (50%: 50%); about 1.3 ng/mL of Cupric sulfate, about 3 μM of Ferric sulfate, about 0.432 μg/mL of Zinc sulfate, about 1-50 ng/mL of Na Selenite, about 110 μg/mL of Sodium pyruvate, 0.1-20 μg/mL of Insulin, 1-200 μg/mL of Transferrin, about 1%(v/v) of GlutaMAX-1, 0.1-20 mg/mL of HSA, 1-400 μM of MTG, about 80 μg/mL of Ascorbic acid and indicated concentration of NAM. Peripheral blood mononuclear cells (PBMCs) were isolated by density gradient centrifugation using Ficoll-Paque. On Day 0, PBMCs were plated at 1×10^6 cells/mL in a 48-well-plate in the basal medium with NAM (either 0, 1, 2, 2.5, 3, 3.5, 4, or 5 mM) and stimulated with the following reagents for 3 days: immobilized CD16 antibody (Biolegend, 302014) (135 ng/cm^2), IL-2 (700 IU/mL), IL-15 (10 ng/mL) and OK432 (0.01 KE/mL). On day 3, cells were re-suspended in the above basal medium supplemented with IL-2 (700 IU/mL) and IL-15 (10 ng/mL). Fresh medium was added every other day to maintain cell density below 2×10^6 cells/mL. Cells were collect on Day 14 and stained with CD56-PE and CD3-PerCP-Cy5.5 antibodies, the percentage of CD56^+CD3^− NK cells was analyzed by flow cytometry.\nThe effect of heparin sodium concentration in an exemplary NKSFM on NK cell expansion was also evaluated. NKSFM comprised the following components: IMDM (Sigma): DMEM/F12 (Gibco) (50%: 50%); about 20 μM of Ethanolamine, about 1-50 ng/mL of Na Selenite, about 110 μg/mL of Sodium pyruvate, 0.1-20 μg/mL of Insulin, 1-200 μg/mL of Transferrin, about 1%(v/v) of GlutaMAX-1, 0.1-20 mg/mL of Human serum albumin, 1-400 μM of MTG, about 80 μg/mL of Ascorbic acid, about 1-5 mM of NAM, 4%(v/v) of PLT, and indicated concentration of heparin sodium. PBMCs were isolated by density gradient centrifugation using Ficoll-Paque. On Day 0, PBMCs were plated at 1×10^6 cells/mL in a 48-well-plate in NKSFM with heparin sodium (0, 0.5, 1, 3, 10, 30, or 50 μg/mL) and stimulated with the following reagents for 3 days: immobilized CD16 antibody (Biolegend, 302014) (135 ng/cm^2), OK432 (0.01 KE/mL), NeoIL-2 (50 ng/mL), IL-12 (10 ng/mL), IL-18 (50 ng/mL). […] Cells were collect on Day 13 and stained with CD56-PE and CD3-PerCP-Cy5.5 antibodies, the percentage of CD56^+CD3^− NK cells was analyzed by flow cytometry. The specific lysis of K562 tumor cells by NK cells were assessed by CFSE/7-AAD cytotoxicity assay. […] After incubation for 4 hours, cells were stained with 7-AAD (Live/dead staining) and analyzed with flow cytometry.\nThe effect of PLT percentage (v/v) in an exemplary NKSFM on NK cell expansion was evaluated. […]"}, "[2]": {"system": "hiPSCs", "experiment": "Directed differentiation of hiPSCs into HE (KDR+), HP (CD34+) and iNK (CD56+) cells, flow cytometry", "format": "cell-based, human", "conditions": "for output of CD34^+ HP cells / output of CD56^+ iNK cells: added during Stage 1-4 (XAV939 5 μM, SB431542 6 μM); for output of CD34^+ HP cells: Day 10, vs control without both (FIG. 8A); for output of CD56^+ iNK cells: Day 25, vs control without both (FIGS. 8B, 8C)", "experimental": "hiPSCs were prepared as described in CN108373998B. The effect of plate coating during Stage 2 on iNK differentiation was further evaluated. On Day −1, Embryoid body (EB) formation (Stage 1-1) was carried out by placing individualized hiPSCs in E8 medium containing 10 μM Blebbistatin in T25 flasks on a bellydancer and culture overnight. On Day 0, lateral mesoderm differentiation (Stage 1-2) was initiated by changing the medium to a Stage 1-2 differentiation medium comprising CD34A basal medium and supplemented with BMP4 (25 ng/mL), VEGF (15 ng/mL), bFGF (0.5 ng/mL) and CHIR99021 (4 μM) for 2 days. On Day 2, lateral mesoderm differentiation (Stage 1-3) continued for 1 day in a Stage 1-3 differentiation medium comprising CD34A basal medium and supplemented with BMP4 (25 ng/mL), VEGF (15 ng/mL) and bFGF (0.5 ng/mL) and CHIR99021 (4 μM). On Day 3, HE specification (Stage 1-4) was initiated by adding a Stage 1-4 differentiation medium comprising CD34A basal medium and supplemented with insulin (5 μg/mL), VEGF (15 ng/mL), bFGF (5 ng/mL), SB431542 (6 μM) for 1 day. On Day 4 (the end of Stage 1-4), HP differentiation (Stage 1-5) in was initiated by adding a Stage 1-5 differentiation medium comprising CD34A basal medium and supplemented with SCF (10 ng/mL), Flt3L (10 ng/mL), VEGF (15 ng/mL) and bFGF (5 ng/mL). To initiate the differentiation from HP cells into iNK cells (Stage 2), EBs of Day 11 were collected and seeded in 24-well-plates without matrix or coated with DLL4 and VCAM1, in a Stage 2 differentiation medium comprising NKSFM and supplemented with SCF (20 ng/mL), Flt3L (10 ng/mL), IL-7 (25 ng/mL), IL-3 (5 ng/mL), IL-15 (10 ng/mL) for 14 days. On Day 25 (Stage 2-wk2), derived cells were counted and stained with CD56-PE antibody, the percentage of CD56+ iNK cells was detected by flow cytometry. […] The differentiation from hPSCs to immature iNK cells was accomplished in only 26 days. Furthermore, the percentage of CD56+CD3−iNK cells at the end of Stage 2 is as high as 80.56% when differentiation was performed with NKSFM and DLL4/VCAM1.\nhiPSCs were prepared as described in CN108373998B. On Day −1, Embryoid body (EB) formation (Stage 1-1) was carried out by placing individualized hiPSCs in E8 medium containing 10 μM Blebbistatin in T25 flasks on a bellydancer and culture overnight. On Day 0, lateral mesoderm differentiation (Stage 1-2) was initiated by changing the medium to a Stage 1-2 differentiation medium comprising IF-4 basal medium and supplemented with BMP4 (25 ng/mL), VEGF (50 ng/mL), bFGF (0.5 ng/mL) and CHIR99021 (4 μM) for 2 days. On Day 2, lateral mesoderm differentiation (Stage 1-3) continued for 1 day in a Stage 1-3 differentiation medium comprising IF-4 basal medium and supplemented with BMP4 (25 ng/mL), VEGF (50 ng/mL) and bFGF (0.5 ng/mL) and CHIR99021 (1 μM). On Day 3, HE specification (Stage 1-4) was initiated by adding a Stage 1-4 differentiation medium comprising IF-4 basal medium and supplemented with VEGF (50 ng/mL), bFGF (5 ng/mL), and without or with XAV939 (5 μM) and/or SB431542 (6 μM) for 1 day. On Day 4, HP differentiation (Stage 1-5) was initiated by adding a Stage 1-5 differentiation medium comprising NKSFM and supplemented with SCF (50 ng/mL), Flt3L (10 ng/mL), VEGF (15 ng/mL) and bFGF (5 ng/mL) for 6 days. On Day 10 (the end of Stage 1), EBs were dissociated into single cells and stained with CD34-APC antibody (BD, #555824), the percentage of CD34^+ HP cells was detected by flow cytometry. To initiate the differentiation from HP cells into iNK cells (Stage 2), EBs were collected and seeded in 24-well-plates coated with matrix proteins, DLL4 and VCAM1, in a Stage 2 differentiation medium comprising NKSFM and supplemented with SCF (20 ng/mL), Flt3L (10 ng/mL), IL-7 (25 ng/mL), IL-3 (5 ng/mL), IL-2 (700 IU/mL), IL-15 (10 ng/mL) for 15 days. On Day 25 (the end of Stage 2), derived cells were counted and stained with CD56-PE antibody (BD, #555516), the percentage of CD56^+ iNK cells was detected by flow cytometry. […]"}, "[3]": {"conditions": "higher VEGF concentration during Stage 1-5"}},
  "data": [
    {"molecule": "NC(=O)c1cccnc1", "note": "[NAM, nicotinamide]", "values": [
      {"measurement": "NK cell expansion fold, effect of concentration", "setting": "[1]; Day 14 (FIG. 2A)", "result": "significantly impacts"},
      {"measurement": "percentage of CD56^+CD3^− NK cells, effect of concentration", "setting": "[1]; Day 14 (FIG. 2B)", "result": "minimal effects"}
    ]},
    {"molecule": "Oc1nc(-c2ccc(C(F)(F)F)cc2)nc2c1CSCC2", "note": "[XAV939]", "values": [
      {"measurement": "output of CD34^+ HP cells", "setting": "[2]", "result": "significantly promotes"},
      {"measurement": "output of CD56^+ iNK cells", "setting": "[2]", "result": "significantly promotes"}
    ]},
    {"molecule": "VEGF", "values": [
      {"measurement": "HP and iNK cell differentiation", "setting": "[2]; Example 12: higher concentration during Stage 1, especially Stage 1-2, 1-3 and 1-4 (Table 3.2, FIG. 12)", "result": "significantly improves"},
      {"measurement": "percentage of KDR+ HE cells, effect of concentration", "setting": "[2]; VEGF 15-100 ng/mL in Stage 1 substages (Table 3.1), Day 4 (FIG. 11A)", "result": "minimal effects"},
      {"measurement": "percentage of CD34+ HP cells, effect of concentration", "setting": "[2]; VEGF 15-100 ng/mL in Stage 1 substages (Table 3.1), Day 10 (FIG. 11B)", "result": "significantly impacts"},
      {"measurement": "efficiency of further differentiation into iNK cells, effect of concentration", "setting": "[2]; VEGF 15-100 ng/mL in Stage 1 substages (Table 3.1), Day 24 morphology (FIG. 11C)", "result": "significantly impacts"},
      {"measurement": "differentiation into HP cells and iNK cells", "setting": "[2]; higher VEGF concentration during Stage 1-2 and Stage 1-3", "result": "generally beneficial"},
      {"measurement": "differentiation into HP cells", "setting": "[2]; [3]", "result": "generally beneficial"},
      {"measurement": "differentiation into iNK cells", "setting": "[2]; [3]", "result": "not into iNK cells"}
    ]},
    {"molecule": "NC(=O)c1ccc(-c2nc(-c3ccc4c(c3)OCO4)c(-c3ccccn3)[nH]2)cc1", "note": "[SB431542]", "values": [
      {"measurement": "output of CD34^+ HP cells", "setting": "[2]", "result": "improvement in increasing CD34^+ HP cell production at a certain degree"},
      {"measurement": "output of CD56^+ iNK cells", "setting": "[2]", "result": "does not show any improvement"}
    ]},
    {"molecule": "Cc1c[nH]c(-c2cnc(NCCNc3ccc(C#N)cn3)nc2-c2ccc(Cl)cc2Cl)n1", "note": "[CHIR99021]", "values": [
      {"measurement": "differentiation into CD34+ HP cells", "setting": "[2]; higher concentration during Stage 1-2 (5, 6, 7, 8 μM), Day 7 (FIG. 9A)", "result": "generally more advantageous"},
      {"measurement": "differentiation into CD56+ iNK cells", "setting": "[2]; higher concentration during Stage 1-2 (5, 6, 7, 8 μM), Day 24 (FIGS. 9B, 9C)", "result": "somewhat disadvantageous"},
      {"measurement": "differentiation into CD34+ HP cells", "setting": "[2]; lower concentration during Stage 1-3 (0-4 μM), Day 7 (FIG. 10A)", "result": "somewhat disadvantageous"},
      {"measurement": "differentiation into CD56+ iNK cells", "setting": "[2]; lower concentration during Stage 1-3 (0-4 μM), Day 24 (FIGS. 10B, 10C)", "result": "generally more advantageous"}
    ]}
  ]
}
